The source of these data is US20040019118A1, “NMDA receptor antagonists and their use in inhibiting abnormal hyperphosphorylation of microtubule associated protein tau” (priority 2002, published 2004).

Assay [1] has as its system cdk5. Kind of assay: cdk5 activity in extracts of treated hippocampal slice cultures. It counts as cell-based, rat. On the procedure: (§1) Organotypic cultures of rat hippocampal slices were prepared from 20-30 day old Wistar rats and cultured with the interface method as described previously (Stoppini, et al. 1991; Bahr, et al. 1995; Zhongrin, et al. 2000). The rats were anesthetized with ketamine (100 mg/kg body weight) and decapitated and the hippocampi were dissected out and sliced into 400 um coronal sections by a McIllwain tissue chopper. Select slices with uninterrupted bright transparent neuronal layers were plated, 1-3 slices/filter, onto Millicell CM filters (Millipore, Bedford, Mass.). For the first 2 days in vitro (DIV) cultures were maintained in 25% horse serum, 50% Basal Media-Eagle (BEM), 25% Eagle's Balanced Salt Solution (EBSS), 25 mM HEPES, 1 mM glutamine, 28 mM glucose, pH 7.2, at 32° C. in a 5% CO2 humidified atmosphere. The slice cultures were then switched to 25% horse serum, 50% BEM and EBSS modified so that the potassium concentration was 2.66 mM, for another 5 DIV. After 7 DIV, the cultures were maintained in physiological potassium containing 5% horse serum medium at 35° C. for at least 20 days before any treatment was applied. When the slices were treated, the reagents were applied into the culture medium. […]

Assay [2] concerns the target T1, PP-2A (Rattus norvegicus, UniProt P63331).
T1 construct: from tissue; host or cells: organotypic culture of adult rat hippocampal slices; 16,000xg extract
Kind of assay: PP-2A activity after in vitro addition to 16,000xg extract of hippocampal slices. It counts as biochemical. As for the experimental part:
Activities of PP-2A and PP-1 were assayed towards [^32P] phosphorylase-a as a substrate as described previously (Gong, et al. 1994). The phosphatase activity was assayed in 20 μl of reaction mixture containing 50 mM Tris, pH 7.0, 10 mM BME, 0.1 mM EDTA, 7.5 mM caffeine, 7.5 ng/μl [^32P]phosphorylase-a and 0.06 mg/ml slice culture extract. The reaction was started by adding ^32P-phosphorylase-a. After incubation for 30 min at 30° C., 7 μl of the reaction mixture was spotted on to 31 ETCHR chromatography paper which had been prespotted with 10 μl stop solution (4 mM ATP+20% TCA). Then the ^32p released was separated from the protein-incorporated ^32P by paper chromatography in 5% TCA and 0.2 M NaCl, paper strips dried, cut and counted by Cerenkov radiation. A PP-1 specific inhibitor, inhibitor-1 (Hitken, et al. 1982) was included in the assays for PP-2A activity. PP-1 activity was calculated by subtracting the PP-2A activity from the total phosphorylase-a phosphatase activity (PP-1/PP-2A) assayed in the absence of inhibitor-1.
For this purpose we treated the hippocampal slices in culture either with 100 nM OA plus 10 μM Memantine or with OA alone for 24 h, followed by a wash and then treatment with or without Memantine for another 24 h.

For assay [3], the system named is tau. Kind of assay: Tau phosphorylation by radioimmuno-dot-blots and 125I-Western blots of slice homogenates. It counts as cell-based, rat. As for the experimental part: The rats were anesthetized with ketamine (100 mg/kg body weight) and decapitated and the hippocampi were dissected out and sliced into 400 um coronal sections by a McIllwain tissue chopper. Select slices with uninterrupted bright transparent neuronal layers were plated, 1-3 slices/filter, onto Millicell CM filters (Millipore, Bedford, Mass.). […] After 7 DIV, the cultures were maintained in physiological potassium containing 5% horse serum medium at 35° C. for at least 20 days before any treatment was applied. When the slices were treated, the reagents were applied into the culture medium. At different time points, the slices collected with a brush were washed twice in homogenizing buffer (50 mM HEPES, pH 7.0, 10 mM β-merceptoethanol [BME], 1 mM EDTA, 1 mM EGTA, 0.1 mM phenylmethyl sulfonyl fluoride [PMSF], 2.0 mM benzamidine and 2.0 μg/ml each of aprotinin, leupeptin and pepstatin) and homogenized at 4° C. using a Teflon-glass homogenizer. The homogenate was then divided into two parts, one was centrifuged at 16000×g for 15 min and the supernatant was used to assay activities of PP-2A and PP-1. The rest of the homogenate was diluted 1:1 with a phosphatase inhibitor cocktail (20 mM β-glycerophosphate, 2 mM Na3VO4 and 100 mM NaF, pH 7.0) and either used for Western blots or centrifuged at 16000×g for 15 min and the resulting supernatant used to determine the kinase activities.
Triplicate samples of each homogenate were applied to nitrocellulose membrane (Schleicher and Schuell, Keene, N.H.) and dried at 37° C.
Background: In western blotting, separated proteins are transferred to a membrane and probed.

Assay [4] has as its system GSK-3. Briefly: GSK-3 activity in extracts of treated hippocampal slice cultures. The format is cell-based, rat. As for the experimental part: as §1
In assay [5] the test system is MAP2. Briefly: 125I-Western blots of MAP2 in slice homogenates. The format is cell-based, rat. As for the experimental part: as §1, with “DIV.” for “DIV. After 7 DIV, the cultures were maintained in physiological potassium containing 5% horse serum medium at 35° C. for at least 20 days before any treatment was applied. When the slices were treated, the reagents were applied into the culture medium.”
(§2) The phosphorylation of tau at Ser 262 and the levels of MAP2 and phosphorylated NF-H/M were assayed by ^125I-Western blots. […] Both immuno-dot-blots and Western blots were developed with ^125I-radiolabeled secondary antibodies and radioimmunoreactivity was visualized and quantitated using a phosphorimager (Fujifilm BAS-1500) and TINA 2.0 software (Raytest Isotopenmessgeräte GmbH)

Assay [6] concerns NF-H/M. Briefly: 125I-Western blots of phosphorylated NF-H/M in slice homogenates. It counts as cell-based, rat. As for the experimental part:
as §1, with “DIV.” for “DIV. After 7 DIV, the cultures were maintained in physiological potassium containing 5% horse serum medium at 35° C. for at least 20 days before any treatment was applied. When the slices were treated, the reagents were applied into the culture medium.”
as §2

Where [7] appears, read: Memantine in OA-treated cultures.
[8] abbreviates: 100 nM OA 24 h, then 10 μM Memantine 24 h.

“Also recorded” adds a separate entry of the source.

The term inhibition denotes the drop in the measured response relative to a control, in per cent.

T1 sequence (P63331 whole entry): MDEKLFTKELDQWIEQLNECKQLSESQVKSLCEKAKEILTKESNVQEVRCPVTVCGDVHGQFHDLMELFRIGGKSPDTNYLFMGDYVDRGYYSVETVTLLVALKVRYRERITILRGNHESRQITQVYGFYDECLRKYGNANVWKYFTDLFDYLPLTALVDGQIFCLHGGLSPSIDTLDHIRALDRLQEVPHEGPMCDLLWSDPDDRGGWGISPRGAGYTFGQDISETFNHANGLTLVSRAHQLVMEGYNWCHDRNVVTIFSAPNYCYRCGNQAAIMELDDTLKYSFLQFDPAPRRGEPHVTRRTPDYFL

As to `CC12CC3CC(C)(C1)CC(N)(C3)C2` [Memantine, 1-amino-3,5-dimethyl adamantane], in assay [1] (setting [7]), the “effect on cdk5 activity” value is on record as “neither OA nor Memantine had any significant effect; also recorded: no significant effect”. Besides, the “effect on PP-2A activity of extract of slices cultured with 100 nM OA for 24 h” value in assay [2] (Memantine 1-10 μM added to extract) was “no significant effect; also recorded: failed to restore”. The “effect on PP-2A activity inhibited in extract with 100 nM OA” value in assay [2] (Memantine 1 to 60 μM added to extract) is on record as “no significant effect”. Moreover, in assay [3] (setting [8]), the “restoration of OA-induced tau phosphorylation at Ser-214” value was “restored the tau phosphorylation at Ser-262 and Ser-214 to normal levels”; the “restoration of OA-induced tau phosphorylation at Ser-262” value is “restored the tau phosphorylation at Ser-262 and Ser-214 to normal levels; also recorded: practically completely restored”. The “restoration of phosphorylation of tau at Ser-262” value in assay [3] (5 μM compound, OA-treated) was “restoration”. Also, the “concentration of maximal effect on tau phosphorylation at Ser-262” value in assay [3] (2-10 μM tested, 24 h) is 5 µM. Further, the “lowest concentration inhibiting OA-induced tau phosphorylation at Ser-262” value in assay [3] (2-10 μM tested, radioimmuno-dot-blot) is 2 µM. Further, the “effect on OA-induced phosphorylation of tau at Ser-422” value in assay [3] (setting [7]) was “no effect”. In assay [3] (antibody 134d, radioimmuno-dot-blots), the “effect on level of total tau” value is given as “no detectable effect”. Besides, in assay [4] (setting [7]), the “effect on GSK-3 activity” value is reported as “neither OA nor Memantine had any significant effect; also recorded: no significant effect”. In addition, in assay [5] (OA then Memantine), the MAP2 level entry is on record as “reversal to normal levels; also recorded: increased the levels of MAP2”. In addition, the “phosphorylated NF-H/M level” value in assay [6] (OA plus/then Memantine) was “reversed the OA-induced increase in phosphorylated NF-H/M; also recorded: reversal of phosphorylation and accumulation of NF-H/M subunits; also recorded: reversed the hyperphosphorylation of NF-H/M”.
As for `C=C1[C@@H](O)[C@@H]2O[C@]3(CC[C@H](/C=C/[C@@H](C)[C@@H]4CC(C)=C[C@@]5(O[C@H](C[C@@](C)(O)C(=O)O)CC[C@H]5O)O4)O3)CC[C@H]2O[C@@H]1[C@@H](O)C[C@H](C)[C@H]1O[C@@]2(CCCCO2)CC[C@H]1C` [OA, Okadaic Acid], the “change in cdk5 activity” value in assay [1] (OA-treated slice cultures) is “no significant change; also recorded: neither OA nor Memantine had any significant effect; also recorded: no significant alteration”. In assay [2] (read-out: inhibition of PP-2A activity, 100 nM OA added to extract of untreated cultures), the inhibition at 0.1 µM was 90%. In addition, in assay [3] (OA-treated cultures), the “phosphorylation of tau at Ser-214” value is “modest increase”, the “phosphorylation of tau at Ser-262” value is reported as “marked increase; also recorded: dramatic increase” and the “phosphorylation of tau at Ser-422” value was “marked increase; also recorded: dramatic increase”. Further, the “change in GSK-3 activity” value in assay [4] (OA-treated slice cultures) was “no significant change; also recorded: neither OA nor Memantine had any significant effect; also recorded: no significant alteration”. For the same compound, the MAP2 level entry in assay [5] (OA-treated cultures) is reported as “a decrease in MAP2”. The “phosphorylated NF-H/M level” value in assay [6] (OA-treated cultures) was “increase in phosphorylated NF-H/M”.
